Measured values: US20140322704A1, “Hepatitis Virus Culture Systems Using Stem Cell-Derived Human Hepatocyte-Like Cells and Their Methods of Use” (The Florida State University Research Foundation, Inc., priority 2011, published 2014)

Legend:
Type in all cases: cell-based
[1] = tested on: JFH-1 based HCVcc; assay: HCVcc infection of DHHs in the presence of HCV inhibitors (FIG. 2D)
From the text: FIG. 2 depicts the results of experiments assessing infection of DHHs derived from hESCs and iPSCs. (A) Detection of HCV proteins in DHHs infected with JFH-1 based HCVcc. DHHs were inoculated with three different preparations of HCVcc at day 13 post-differentiation and cell lysates collected at day 21 for western blot analysis. The anti-NS3 antibody also recognized a non-specific band in the mock infected sample. (B) Immunostaining of infected DHHs. A JFH variant containing a FLAG tag in the NS5A protein was used to infect either Huh-7.5 or DHHs and staining was done with an anti-FLAG antibody. (C) Infection of Huh-7.5 and DHHs as measured by the HCV-dependent fluorescence relocalization assay. Reporter-transduced cells were infected with HCVcc and the cells were fixed for immunofluorescence analysis 72 hours post-infection. For the RFP-NLS-IPS expressing cells, HCV infection leads to complete nuclear translocation of the RFP; for the EGFP-IPS cells, HCV infection leads to redistribution of green fluorescence from a reticulate cytoplasmic pattern to a diffused pattern with a nuclear enrichment. […] The following inhibitors were included in the infection experiments. IFN: interferon-α, 80 units/ml; AR3A: anti-E2 neutralizing antibody, 1 μg/ml; ITX: ITX5061, an SR-BI inhibitor, 1 μM. (E) Comparison of HCVcc infection levels in DHHs and PHHs. PHHs were infected for 8 days to keep the infected days the same between the two cell types (DHHs were infected at day 13 and the lysed at day 21). (F) Infection of DHHs derived from an iPSC line. Differentiation and infection of iPS.K3 were performed as described for H9-derived DHHs (FIG. 1 and FIG. 2A).
All JFH-1 based HCVcc (Mut4-6, SAV, Jc1/GLuc2A, and DEYN-Jc1/GLuc2A) were produced in Huh-7.5 cells as previously described (2005, Lindenbach, et al., Science 309:623-626). Genotype 1b HCVser was obtained from a commercial supplier (Teragenix, Ft. Lauderdale, Fla.). All infections were done by incubating virus inoculum with cells for 6-9 hours before the cells were washed and changed into the appropriate medium for the specific cell type and differentiation stage. For the time course of DHHs permissiveness, infection of each time point was allowed to proceed for exactly 48 hours before cell harvesting and western blotting. Immunofluorescence analysis of HCV receptors and intracellular antigens. Cells were fixed in 4% paraformaldehyde in phosphate-buffered saline (PBS) at room temperature for 10 minutes and blocked with PBGB (PBS containing 10% normal goat serum, and 1% bovine serum albumin (BSA)) at room temperature for 2 hours. Cells were incubated with primary antibodies (anti-CD81, anti-SR-B1, anti-claudin 1 and anti-occludin, diluted in PBG at 1:200) at 4° C. overnight or 2 hours at room temperature. […]

[2] = tested on: HCVcc; assay: Secretion of HCV core antigen into culture medium by HCVcc-infected DHHs, core ELISA (FIG. 3B); conditions: IFN-α 50 units/ml; 48 hours after infection; H9-derived DHHs
Description: FIG. 3 depicts the results of experiments showing that DHHs support persistent infection and secrete infectious HCV particles. (A) Continuous replication of HCVcc in DHHs. Day-10 DHHs were infected with Jc1/GLuc2A for 9 hours before the inoculum was removed and the cells were changed into medium E with or without a cyclophilin inhibitor CsA at 1 μg/ml. Culture supernatants were collected daily to measure luciferase activity. The culture media was replaced with thorough washing every 48 hours and CsA was included every time fresh media was used. Error bars represent standard deviation from triplicate experiments. (B) Secretion of HCV core antigen into the culture medium by infected DHHs. […]
To quantify miR-122 levels, TRIzol extracted RNA samples were reverse transcribed using TaqMan MicroRNA Reverse Transcription kit (Applied Biosystems) and the resulting cDNA served as templates for Real-Time PCR analysis using TaqMan MicroRNA Assay for miR-122 (Applied Biosystems). […]
To verify continuous viral replication during the infection period, the secretion of Gaussia luciferase into the culture media by the DHHs infected with the GLuc reporter virus was monitored using a procedure previously used to monitor persistent HCV infection in microscale PHHs (2010, Floss et al., Proc Natl Acad Sci USA 107:3141-3145). […]

[3] = tested on: genotype 1b HCVser; assay: Infection of DHHs by patient serum-derived HCV, western blotting (FIG. 7A); conditions: IFN-α 50 units/ml; genotype 1b patient serum; 48 hours
From the text: FIG. 7 depicts the results of experiments assessing the direct infection of DHHs by HCV derived from patient serum. (A) Detection of IFN-sensitive HCVser infection by western blotting IFN-α was included in the medium at 50 units/ml when indicated. (B) Visualization of single cell infection events by HCVser using the HCV-dependent fluorescence relocalization assay. Arrows indicate individual cells infected with HCVser and showing nuclear translocation of the RFP. (C) Secretion of HCV core antigen into culture supernatant by HCVser-infected DHHs. Values for core levels in supernatants collected 48 hours post-infection were plotted. IFN-α was included in the medium at 50 units/ml when indicated. Error bars represent standard deviation of replicate experiments. (D) HCVser preferentially infected DHHs over Huh-7.5 cells. […]
Although robust infection of PHHs by HCVcc has been reported (2010, Podevin et al., Gastroenterology 1355-1364; 2010, Ploss et al., Proc Natl Acad Sci USA 107:3141-3145; 2010, Banaudha et al., Hepatology 51:1922-1932), direct infection by HCV derived from patient serum (HCVser) remained inefficient (2010, Podevin et al., Gastroenterology. 139:1355-1364; 1998, Fournier et al., J Gen Virol. 79:2367-2374). […] In addition, secretion of HCV core antigen was detected in the supernatant of the DHHs infected by HCVser (FIG. 7C).

How did the “HCV infection in DHHs” value ([1]; ITX5061 1 μM) turn out when COc1c(NC(=O)C(=O)c2ccc(OCCN3CCOCC3)c3ccccc23)cc(C(C)(C)C)cc1NS(C)(=O)=O [ITX5061] was run?
The value was “abolished HCV infection”.

What about the “HCV infection in DHHs” value ([1]; ITX5061 1 μM, listed as small molecule compound that inhibits the scavenger receptor class B type I (SR-) of the same compound?
Its value is “efficiently blocked infection”.

With interferon-α [IFN-α] as the compound, how does the “HCV infection in DHHs” value ([1]; interferon-α 80 units/ml) read?
Its value is “efficiently blocked infection”.

And the “HCV infection in DHHs” value ([1]; interferon-α 80 units/ml, listed as IFN)?
Its value is “abolished HCV infection”.

And the “HCV core antigen in the supernatant of infected cells” value [2]?
The value was “not in that of the similarly infected but IFN-treated cells”.

And the “HCVser infection of DHHs detected by western blotting” value [3]?
The value was “sensitive to IFN inhibition”.
